Results taken from patent US20060039883A1, “Biologically active compounds for the modification of bodily odours” (priority 2002, published 2006).

Assays:
human beings = assay: Odour evaluation of paired aqueous solutions by test persons (similar or different); format: in vivo; settings: 0.5 mM in phosphate buffered saline
Experimental: Several individuals were asked to evaluate the odour of a number of aqueous solutions. A prototypical MHC class I peptide (SLLPAIVEL), a known ligand of the A′02xx allele, or an equimolar mixture of the corresponding amino acids (S, L, P, A, I, V, E) were added to solvent (phosphate buffered saline) at final concentrations of 0.5 mM. These solutions were offered in pairs and the test persons were asked to decide whether the two solutions smelled similar or different. The probands easily distinguish peptides from amino acids.

female sticklebacks = assay: Flow channel odour preference / mate choice experiment with sticklebacks; format: in vivo, Gasterosteus aculeatus
Experimental: The source of sticklebacks has been described (7). The flow channel set-up to evaluate mate choice determines odour preference, as a precursor of mate choice. Water was taken from the tank of a single male per trial and used both as stimulus (after addition of peptide(s)) and control (after addition of solvent) water. Peptides were added to the bottle with stimulus water just before the experiment at a final concentration of 1 mM; this becomes diluted to 5 nM in the water column passing through the test compartment. The following nona-peptides were used, MHC specificities indicated in brackets: […] (H2-K^b); […] and AAPDNRETF (H2-D^b); SYFPEITHI and SYIPSAEKI (H2-K^d). Peptides were synthesized by solid-phase 9-fluorenylmethoxycarbonyl chemistry. In experiments using a single peptide, AAPDNRETF was used. All experiments were performed in double-blinded fashion as described. Statistical analysis was performed with JMP 4.
The binding preferences for peptides of MHC molecules of sticklebacks are unknown; therefore synthetic peptides derived from endogenous mouse and viral proteins that are ligands for different mouse MHC molecules were used. Such peptides almost certainly appear foreign to sticklebacks irrespective of their MHC genotypes. Gravid females prefer water from a tank harbouring a male to that from a tank with fresh water (Experiment A, Table 1). Therefore, it was tested whether addition of peptide(s) to water from individual males would alter the outcome of mate choice. Gravid females were presented with water from single males with and without the addition of a mixture of five different peptides in the two columns of a flow-channel.

[1] = Test pair Peptide vs. Amino acids

Sequence	Probands scoring difference (human beings; [1])	Probands scoring difference (fraction) (human beings; [1])	Probands scoring difference (human beings; Test pair Peptide vs. Peptide)	Probands scoring difference (fraction) (human beings; Test pair Peptide vs. Peptide)	Time spent on side of water source 2 (female sticklebacks; Experiment B, gravid females, Fresh + 1 peptide vs Fresh + solvent, 5 nM in water column, n=24)	Attractiveness of peptide in plain tank water (in words) (female sticklebacks; Experiment B, gravid females, plain tank water)	Time spent on side of water source 2 (female sticklebacks; Experiment C, gravid females, Male + 1 peptide vs Male + solvent, 5 nM, n=25)	Time spent on side of water source 2 (female sticklebacks; Experiment C, gravid females, Male + 1 peptide vs Male + solvent, 5 nM, n=25, listed as one peptide)	Time spent on side of water source 2 (female sticklebacks; Experiment E, non-gravid females, Male + 1 peptide vs Male + solvent, 5 nM, n=25)	Preference for male water with vs without peptide (in words) (female sticklebacks; Experiment E, non-gravid fish, male water)	Excess time spent on the side of peptide-supplemented male water (female sticklebacks; gravid females, male water, excess over 300 sec)
SLLPAIVEL [Peptide, prototypical MHC class I peptide, known ligand of the A*02xx allele]	13/14	(0.93)	1/14	(0.07)	–	–	–	–	–	–	–
AAPDNRETF [1 peptide, synthetic nona-peptide, H2-D^b ligand; used in experiments using a single peptide]	–	–	–	–	291.8 ± 24.6 s	not attractive	327.7 ± 24.8 s	327.7 ± 24.8 s	308.1 ± 23.5 s	no preference was observed	27.7 ± 12.4 s
